Assay results as given in ChEMBL document CHEMBL4184177, “Synthesis and bioevaluation study of novel N-methylpicolinamide and thienopyrimidine derivatives as selectivity c-Met kinase inhibitors” (Bioorg Med Chem, 2018).

Columns and labels:
HepG2 = assay: cells; conditions: Homo sapiens, HepG2, 72 h
Description: Cytotoxicity against human HepG2 cells after 72 hrs by MTT assay

A549 = assay: Cytotoxicity against human A549 cells after 72 hrs by MTT assay; conditions: A549, 72 h
MCF7 = assay: cells; conditions: Homo sapiens, MCF7, 72 h
Description: Cytotoxicity against human MCF7 cells after 72 hrs by MTT assay

[1] = target: Hepatocyte growth factor receptor (Homo sapiens, UniProt P08581); assay: Inhibition of c-Met (unknown origin) using FAM-labeled peptide substrate after 10 mins by mobility shift assay
Hepatocyte growth factor receptor, sequence (P08581 whole entry): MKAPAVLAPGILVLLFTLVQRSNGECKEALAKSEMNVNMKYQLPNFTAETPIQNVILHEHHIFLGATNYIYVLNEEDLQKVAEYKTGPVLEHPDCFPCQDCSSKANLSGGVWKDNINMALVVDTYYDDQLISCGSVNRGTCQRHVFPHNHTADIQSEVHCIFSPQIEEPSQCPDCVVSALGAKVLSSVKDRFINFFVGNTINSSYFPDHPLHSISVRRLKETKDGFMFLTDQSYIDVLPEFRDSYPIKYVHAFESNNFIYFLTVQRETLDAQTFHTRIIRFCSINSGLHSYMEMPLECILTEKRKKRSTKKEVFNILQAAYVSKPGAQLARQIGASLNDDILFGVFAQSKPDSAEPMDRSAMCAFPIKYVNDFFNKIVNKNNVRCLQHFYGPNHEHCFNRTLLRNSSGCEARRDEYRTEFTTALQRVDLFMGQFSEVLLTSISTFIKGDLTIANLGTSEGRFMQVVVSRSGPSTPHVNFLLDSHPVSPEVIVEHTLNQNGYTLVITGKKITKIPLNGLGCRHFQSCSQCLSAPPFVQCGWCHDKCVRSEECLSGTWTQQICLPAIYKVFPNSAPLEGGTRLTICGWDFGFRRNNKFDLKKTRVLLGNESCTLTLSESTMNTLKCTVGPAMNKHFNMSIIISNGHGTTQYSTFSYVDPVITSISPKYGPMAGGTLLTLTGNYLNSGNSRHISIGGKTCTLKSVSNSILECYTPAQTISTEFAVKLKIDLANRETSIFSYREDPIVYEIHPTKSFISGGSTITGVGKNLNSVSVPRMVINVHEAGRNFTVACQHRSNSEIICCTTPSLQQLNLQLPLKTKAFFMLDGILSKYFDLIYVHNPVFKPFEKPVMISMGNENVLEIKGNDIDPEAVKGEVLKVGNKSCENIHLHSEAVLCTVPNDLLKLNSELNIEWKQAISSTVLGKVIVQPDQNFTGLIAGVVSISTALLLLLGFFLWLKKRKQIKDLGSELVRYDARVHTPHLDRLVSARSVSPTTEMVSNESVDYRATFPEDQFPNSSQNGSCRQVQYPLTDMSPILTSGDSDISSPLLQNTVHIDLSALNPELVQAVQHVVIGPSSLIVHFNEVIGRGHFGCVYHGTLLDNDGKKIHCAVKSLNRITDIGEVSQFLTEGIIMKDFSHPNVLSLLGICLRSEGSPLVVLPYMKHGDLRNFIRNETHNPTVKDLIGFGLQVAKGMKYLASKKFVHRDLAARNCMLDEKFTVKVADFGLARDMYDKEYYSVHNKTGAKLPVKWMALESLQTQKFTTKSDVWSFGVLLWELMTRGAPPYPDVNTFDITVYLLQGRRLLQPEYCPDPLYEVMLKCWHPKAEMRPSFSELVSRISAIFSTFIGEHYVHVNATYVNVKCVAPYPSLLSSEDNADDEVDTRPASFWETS

Compound `Cc1ccc(-n2nc(C(=O)Nc3ccc(Oc4ncnc5sccc45)cc3)c(C)cc2=O)cc1` has an IC50 (HepG2) greater than 40 µM, an IC50 (A549) greater than 40 µM and an IC50 (MCF7) greater than 40 µM.
Compound `Cc1cc(=O)n(-c2ccc(F)cc2)nc1C(=O)Nc1ccc(Oc2ncnc3sccc23)c(F)c1` has an IC50 (HepG2) of 12.5 µM, an IC50 (A549) of 2.62 µM and an IC50 (MCF7) of 12.3 µM.
Compound `Cc1cc(=O)n(-c2ccc(F)cc2)nc1C(=O)Nc1ccc(Oc2ncnc3sccc23)cc1` has an IC50 (HepG2) of 6.46 µM, an IC50 (A549) of 7.05 µM and an IC50 (MCF7) of 21 µM.
In the case of `Cc1cc(=O)n(-c2ccccc2OC(F)(F)F)nc1C(=O)Nc1ccc(Oc2ncnc3sccc23)c(F)c1`, the IC50 (HepG2) is reported as greater than 40 µM, the IC50 (A549) is reported as greater than 40 µM and the IC50 (MCF7) is reported as greater than 40 µM.
`Cc1cc(=O)n(-c2ccccc2OC(F)(F)F)nc1C(=O)Nc1ccc(Oc2ncnc3ccsc23)c(F)c1` gave an IC50 (HepG2) of 15.7 µM, an IC50 (A549) of 5.72 µM and an IC50 (MCF7) of 11.5 µM.
`Cc1cc(=O)n(-c2ccc(Br)cc2F)nc1C(=O)Nc1ccc(Oc2ncnc3ccsc23)cc1` gave an IC50 (HepG2) of 10.6 µM, an IC50 (A549) of 7.93 µM and an IC50 (MCF7) of 9.36 µM.
`O=C(Nc1ccc(Oc2ncnc3ccsc23)c(F)c1)c1nn(-c2ccc(Br)cc2)ccc1=O` was tested, and the IC50 (HepG2) was 10.7 µM, the IC50 (A549) was 7.84 µM and the IC50 (MCF7) was 9.62 µM.
Compound `Cc1cc(=O)n(-c2cccc(F)c2)nc1C(=O)Nc1ccc(Oc2ncnc3ccsc23)c(F)c1` has an IC50 (HepG2) of 7.81 µM, an IC50 (A549) of 5.22 µM and an IC50 (MCF7) of 9.05 µM.
In the case of `Cc1ccc(-n2nc(C(=O)Nc3ccc(Oc4ncnc5ccsc45)c(F)c3)c(C)cc2=O)cc1`, the IC50 (HepG2) is reported as 17.2 µM, the IC50 (A549) is reported as 5.89 µM and the IC50 (MCF7) is reported as 7.25 µM.
`Cc1cc(=O)n(-c2ccc(F)c(F)c2)nc1C(=O)Nc1ccc(Oc2ncnc3ccsc23)cc1` showed an IC50 (HepG2) of 9.23 µM, an IC50 (A549) of 8.18 µM and an IC50 (MCF7) of 5.55 µM.
Work on `CNC(=O)c1cc(Oc2ccc(NC(=O)c3nn(-c4ccccc4OC(F)(F)F)c(=O)cc3C)cc2F)ccn1` yielded an IC50 (HepG2) greater than 40 µM, an IC50 (A549) greater than 40 µM and an IC50 (MCF7) greater than 40 µM.
`Cc1cc(=O)n(-c2cccc(F)c2)nc1C(=O)Nc1ccc(Oc2ncnc3sccc23)cc1` gave an IC50 (HepG2) of 18.5 µM, an IC50 (A549) of 16.4 µM and an IC50 (MCF7) of 27.2 µM.
Work on `Cc1cc(=O)n(-c2ccc(Br)cc2F)nc1C(=O)Nc1ccc(Oc2ncnc3ccsc23)c(F)c1` yielded an IC50 (HepG2) of 3.35 µM, an IC50 (A549) of 2.98 µM and an IC50 [1] of 0.032 µM. For the same compound, the IC50 (MCF7) was 1.55 µM.
Compound `Cc1cc(=O)n(-c2cccc(F)c2)nc1C(=O)Nc1ccc(Oc2ncnc3ccsc23)cc1` has an IC50 (HepG2) of 10.2 µM, an IC50 (A549) of 9.54 µM and an IC50 (MCF7) of 6.41 µM.
`Cc1ccc(-n2nc(C(=O)Nc3ccc(Oc4ncnc5ccsc45)cc3)c(C)cc2=O)c(C)c1` showed an IC50 (HepG2) of 17.9 µM, an IC50 (A549) of 16.4 µM and an IC50 (MCF7) of 11.9 µM.
`CNC(=O)c1cc(Oc2ccc(NC(=O)c3nn(-c4cccc(F)c4)c(=O)cc3C)cc2F)ccn1` gave an IC50 (HepG2) of 10.2 µM, an IC50 (A549) of 9.54 µM and an IC50 (MCF7) of 6.41 µM.
In the case of `Cc1ccc(-n2ccc(=O)c(C(=O)Nc3ccc(Oc4ncnc5ccsc45)c(F)c3)n2)cc1`, the IC50 (HepG2) is reported as 24.2 µM, the IC50 (A549) is reported as 11.6 µM and the IC50 (MCF7) is reported as 23.2 µM.
With `O=C(Nc1ccc(Oc2ncnc3ccsc23)c(F)c1)c1nn(-c2ccc(F)c(Cl)c2)ccc1=O` the IC50 (HepG2) was 10.6 µM, the IC50 (A549) was 9.65 µM and the IC50 (MCF7) was 6.63 µM.
With `Cc1cc(=O)n(-c2ccccc2C(F)(F)F)nc1C(=O)Nc1ccc(Oc2ncnc3ccsc23)c(F)c1` the IC50 (HepG2) was 9.38 µM, the IC50 (A549) was 4.68 µM and the IC50 (MCF7) was 6.02 µM.
`CNC(=O)c1cc(Oc2ccc(NC(=O)c3nn(-c4ccccc4C(F)(F)F)c(=O)cc3C)cc2F)ccn1` gave an IC50 (HepG2) greater than 40 µM, an IC50 (A549) greater than 40 µM and an IC50 (MCF7) of 35.7 µM.
Work on `Cc1cc(=O)n(-c2ccccc2OC(F)(F)F)nc1C(=O)Nc1ccc(Oc2ncnc3ccsc23)cc1` yielded an IC50 (HepG2) of 25 µM, an IC50 (A549) of 10.1 µM and an IC50 (MCF7) of 23.8 µM.
`CNC(=O)c1cc(Oc2ccc(NC(=O)c3nn(-c4ccc(C)cc4)c(=O)cc3C)cc2F)ccn1` was tested, and the IC50 (HepG2) was 10.6 µM, the IC50 (A549) was 11.5 µM and the IC50 (MCF7) was 8.38 µM.
`Cc1cc(=O)n(-c2ccc(F)cc2)nc1C(=O)Nc1ccc(Oc2ncnc3ccsc23)cc1` was tested, and the IC50 (HepG2) was 2.11 µM, the IC50 (A549) was 2.36 µM and the IC50 [1] was 0.048 µM. For the same compound, the IC50 (MCF7) was 4.4 µM.
`Cc1cc(=O)n(-c2ccc(F)c(F)c2)nc1C(=O)Nc1ccc(Oc2ncnc3sccc23)c(F)c1` gave an IC50 (HepG2) greater than 40 µM, an IC50 (A549) of 15.7 µM and an IC50 (MCF7) of 20.6 µM.
`Cc1cc(=O)n(-c2ccc(Br)cc2F)nc1C(=O)Nc1ccc(Oc2ncnc3sccc23)cc1` gave an IC50 (HepG2) of 6.3 µM, an IC50 (A549) of 12.8 µM and an IC50 (MCF7) of 15.2 µM.
For `Cc1ccc(-n2nc(C(=O)Nc3ccc(Oc4ncnc5ccsc45)cc3)c(C)cc2=O)cc1`, the IC50 (HepG2) was 25 µM, the IC50 (A549) was 11.5 µM and the IC50 (MCF7) was 23.8 µM.
In the case of `Cc1cc(=O)n(-c2ccc(Br)cc2F)nc1C(=O)Nc1ccc(Oc2ncnc3sccc23)c(F)c1`, the IC50 (HepG2) is reported as 13.8 µM, the IC50 (A549) is reported as 11.5 µM and the IC50 (MCF7) is reported as 13.2 µM.
Compound `Cc1cc(=O)n(-c2cccc(F)c2)nc1C(=O)Nc1ccc(Oc2ncnc3sccc23)c(F)c1` has an IC50 (HepG2) of 24.4 µM, an IC50 (A549) of 19.5 µM and an IC50 (MCF7) of 17.3 µM.
Compound `Cc1ccc(-n2nc(C(=O)Nc3ccc(Oc4ncnc5sccc45)c(F)c3)c(C)cc2=O)cc1` has an IC50 (HepG2) greater than 40 µM, an IC50 (A549) greater than 40 µM and an IC50 (MCF7) greater than 40 µM.
With `CNC(=O)c1cc(Oc2ccc(NC(=O)c3nn(-c4ccccc4F)c(=O)cc3C)cc2F)ccn1` the IC50 (HepG2) was greater than 40 µM, the IC50 (A549) was greater than 40 µM and the IC50 (MCF7) was greater than 40 µM.
`CNC(=O)c1cc(Oc2ccc(NC(=O)c3nn(-c4ccc(Br)cc4F)c(=O)cc3C)cc2F)ccn1` showed an IC50 (HepG2) of 2.83 µM, an IC50 (A549) of 7.93 µM and an IC50 (MCF7) of 9.36 µM.
For `Cc1cc(=O)n(-c2ccccc2C(F)(F)F)nc1C(=O)Nc1ccc(Oc2ncnc3sccc23)cc1`, the IC50 (HepG2) was greater than 40 µM, the IC50 (A549) was 19.9 µM and the IC50 (MCF7) was greater than 40 µM.
With `Cc1cc(=O)n(-c2ccccc2C(F)(F)F)nc1C(=O)Nc1ccc(Oc2ncnc3ccsc23)cc1` the IC50 (HepG2) was 9.23 µM, the IC50 (A549) was 8.85 µM and the IC50 (MCF7) was 5.55 µM.
`O=C(Nc1ccc(Oc2ncnc3ccsc23)c(F)c1)c1nn(-c2ccc(F)cc2)ccc1=O` was tested, and the IC50 (HepG2) was 9.16 µM, the IC50 (A549) was 8.23 µM and the IC50 (MCF7) was 5.72 µM.
Compound `Cc1cc(=O)n(-c2ccccc2OC(F)(F)F)nc1C(=O)Nc1ccc(Oc2ncnc3sccc23)cc1` has an IC50 (HepG2) of 14.4 µM, an IC50 (A549) of 15.5 µM and an IC50 (MCF7) of 11 µM.
For `Cc1cc(=O)n(-c2ccc(F)c(F)c2)nc1C(=O)Nc1ccc(Oc2ncnc3sccc23)cc1`, the IC50 (HepG2) was 16.8 µM, the IC50 (A549) was 13.5 µM and the IC50 (MCF7) was 16.1 µM.
Work on `O=C(Nc1ccc(Oc2ncnc3ccsc23)c(F)c1)c1nn(-c2ccccc2)ccc1=O` yielded an IC50 (HepG2) of 13.5 µM, an IC50 (A549) of 19.7 µM and an IC50 (MCF7) of 12.4 µM.
Compound `Cc1cc(=O)n(-c2ccc(F)c(F)c2)nc1C(=O)Nc1ccc(Oc2ncnc3ccsc23)c(F)c1` has an IC50 (HepG2) of 6.93 µM, an IC50 (A549) of 4.59 µM and an IC50 (MCF7) of 6.9 µM.
`Cc1cc(=O)n(-c2ccccc2C(F)(F)F)nc1C(=O)Nc1ccc(Oc2ncnc3sccc23)c(F)c1` showed an IC50 (HepG2) of 14.7 µM, an IC50 (A549) of 16.3 µM and an IC50 (MCF7) of 13.8 µM.
